In patent publication US20210386367A1, “DEVICES AND SYSTEMS FOR GASTROINTESTINAL MICROBIOME DETECTION AND MANIPULATION” (Progenity, Inc., priority 2018, published 2021):
Converted amounts (≈) assume the structure as drawn. Like-named read-outs stand apart in the source and are kept apart here.

Legend:
B. fragilis ATCC 25285 = assay: Broth microdilution MIC (time-kill study); type: cell-based, Bacteroides fragilis; conditions: B. fragilis MMX 123 ATCC 25285
B. vulgatus ATCC 8482 = assay: Broth microdilution MIC (time-kill study); type: cell-based, Bacteroides vulgatus; conditions: B. vulgatus ATCC 8482
Enterobacter aerogenes = assay: Broth microdilution MIC, 50 clinical isolates; type: cell-based
Method in brief: (§1)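 CLSI broth microdilution in cation-adjusted Mueller Hinton broth, with 3% lysed horse blood added for streptococci. Two-fold dilutions, inoculum ~5×10^5 CFU/mL, 35° C for 16-24 hr in ambient air (streptococci with CO2 planchets). MIC = lowest concentration inhibiting visible growth.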

Proteus mirabilis = assay: Broth microdilution MIC, 50 clinical isolates; type: cell-based
Method in brief: as §1

Pseudomonas aeruginosa = assay: Broth microdilution MIC, 50 clinical isolates; type: cell-based
Method in brief: as §1

CN[C@H](CC(C)C)C(=O)N[C@H]1C(=O)N[C@@H](CC(N)=O)C(=O)N[C@H]2C(=O)N[C@H]3C(=O)N[C@H](C(=O)N[C@H](C(=O)O)c4cc(O)cc(O)c4-c4cc3ccc4O)[C@H](O)c3ccc(c(Cl)c3)Oc3cc2cc(c3O[C@@H]2O[C@H](CO)[C@@H](O)[C@H](O)[C@H]2O[C@H]2C[C@](C)(N)[C@H](O)[C@H](C)O2)Oc2ccc(cc2Cl)[C@H]1O [vancomycin, Vancomycin]
MIC (B. fragilis ATCC 25285; Bacteroides fragilis, ATCC25285, read-out: MIC): > 16 µg/mL
MIC (B. vulgatus ATCC 8482; Phocaeicola vulgatus, ATCC8482, read-out: MIC): > 16 µg/mL

piperacillin/tazobactam [piperacillin-tazobactam]
MIC (B. fragilis ATCC 25285): 8 µg/mL
% I (Enterobacter aerogenes): 16%
% R (Enterobacter aerogenes): 8%
% S (Enterobacter aerogenes): 76%
MIC50 (Enterobacter aerogenes): 4 µg/mL
MIC90 (Enterobacter aerogenes): 64 µg/mL
Mode (Enterobacter aerogenes): 2 µg/mL
Cumulative percentage of isolates inhibited at MIC (Enterobacter aerogenes; 1 μg/mL): 4.0%
Number of test isolates at MIC (Enterobacter aerogenes; 1 μg/mL): 2
Cumulative percentage of isolates inhibited at MIC (Enterobacter aerogenes; 2 μg/mL): 38.0%
Number of test isolates at MIC (Enterobacter aerogenes; 2 μg/mL): 17
Cumulative percentage of isolates inhibited at MIC (Enterobacter aerogenes; 4 μg/mL): 62.0%
Number of test isolates at MIC (Enterobacter aerogenes; 4 μg/mL): 12
Cumulative percentage of isolates inhibited at MIC (Enterobacter aerogenes; 8 μg/mL): 74.0%
Number of test isolates at MIC (Enterobacter aerogenes; 8 μg/mL): 6
Cumulative percentage of isolates inhibited at MIC (Enterobacter aerogenes; 16 μg/mL): 76.0%
Number of test isolates at MIC (Enterobacter aerogenes; 16 μg/mL): 1
Cumulative percentage of isolates inhibited at MIC (Enterobacter aerogenes; 32 μg/mL): 88.0%
Number of test isolates at MIC (Enterobacter aerogenes; 32 μg/mL): 6
Cumulative percentage of isolates inhibited at MIC (Enterobacter aerogenes; 64 μg/mL): 92.0%
Number of test isolates at MIC (Enterobacter aerogenes; 64 μg/mL): 2
Cumulative percentage of isolates inhibited at MIC (Enterobacter aerogenes; 128 μg/mL): 98.0%
Number of test isolates at MIC (Enterobacter aerogenes; 128 μg/mL): 3
Cumulative percentage of isolates inhibited at MIC (Enterobacter aerogenes; >128 μg/mL): 100.0%
Number of test isolates at MIC (Enterobacter aerogenes; >128 μg/mL): 1
% S (Proteus mirabilis): 100%
MIC50 (Proteus mirabilis): 0.25 µg/mL
MIC90 (Proteus mirabilis): 1 µg/mL
MIC range (Proteus mirabilis): ≤0.12 to 2 µg/mL
Mode (Proteus mirabilis): 0.25 µg/mL
Cumulative percentage of isolates inhibited at MIC (Proteus mirabilis; 0.5 μg/mL): 82.0%
Number of test isolates at MIC (Proteus mirabilis; 0.5 μg/mL): 16
Cumulative percentage of isolates inhibited at MIC (Proteus mirabilis; 1 μg/mL): 96.0%
Number of test isolates at MIC (Proteus mirabilis; 1 μg/mL): 7
Cumulative percentage of isolates inhibited at MIC (Proteus mirabilis; 2 μg/mL): 100.0%
Number of test isolates at MIC (Proteus mirabilis; 2 μg/mL): 2
Cumulative percentage of isolates inhibited at MIC (Proteus mirabilis; […]): 50.0%
Number of test isolates at MIC (Proteus mirabilis; […]): 22
Cumulative percentage of isolates inhibited at MIC (Proteus mirabilis; ≤[…]): 6.0%
Number of test isolates at MIC (Proteus mirabilis; ≤[…]): 3
% I (Pseudomonas aeruginosa): 14%
% R (Pseudomonas aeruginosa): 22%
% S (Pseudomonas aeruginosa): 64%
MIC50 (Pseudomonas aeruginosa): 8 µg/mL
MIC90 (Pseudomonas aeruginosa): >128 µg/mL
Mode (Pseudomonas aeruginosa): 4 µg/mL
Cumulative percentage of isolates inhibited at MIC (Pseudomonas aeruginosa; 2 μg/mL): 6.0%
Number of test isolates at MIC (Pseudomonas aeruginosa; 2 μg/mL): 3
Cumulative percentage of isolates inhibited at MIC (Pseudomonas aeruginosa; 4 μg/mL): 40.0%
Number of test isolates at MIC (Pseudomonas aeruginosa; 4 μg/mL): 17
Cumulative percentage of isolates inhibited at MIC (Pseudomonas aeruginosa; 8 μg/mL): 60.0%
Number of test isolates at MIC (Pseudomonas aeruginosa; 8 μg/mL): 10
Cumulative percentage of isolates inhibited at MIC (Pseudomonas aeruginosa; 16 μg/mL): 64.0%
Number of test isolates at MIC (Pseudomonas aeruginosa; 16 μg/mL): 2
Cumulative percentage of isolates inhibited at MIC (Pseudomonas aeruginosa; 32 μg/mL): 74.0%
Number of test isolates at MIC (Pseudomonas aeruginosa; 32 μg/mL): 5
Cumulative percentage of isolates inhibited at MIC (Pseudomonas aeruginosa; 64 μg/mL): 78.0%
Number of test isolates at MIC (Pseudomonas aeruginosa; 64 μg/mL): 2
Cumulative percentage of isolates inhibited at MIC (Pseudomonas aeruginosa; 128 μg/mL): 84.0%
Number of test isolates at MIC (Pseudomonas aeruginosa; 128 μg/mL): 3
Cumulative percentage of isolates inhibited at MIC (Pseudomonas aeruginosa; >128 μg/mL): 100.0%
Number of test isolates at MIC (Pseudomonas aeruginosa; >128 μg/mL): 8
MIC (B. vulgatus ATCC 8482): 4 µg/mL

COc1c(N2C[C@@H]3CCCN[C@@H]3C2)c(F)cc2c(=O)c(C(=O)O)cn(C3CC3)c12 [moxifloxacin]
MIC range (Enterobacter aerogenes): 0.03 to 0.5 µg/mL
Mode (Enterobacter aerogenes): 0.12 µg/mL
Cumulative percentage of isolates inhibited at MIC (Enterobacter aerogenes; 0.03 μg/mL): 10.0%
Number of test isolates at MIC (Enterobacter aerogenes; 0.03 μg/mL): 5
Cumulative percentage of isolates inhibited at MIC (Enterobacter aerogenes; 0.06 μg/mL): 50.0%
Number of test isolates at MIC (Enterobacter aerogenes; 0.06 μg/mL): 20
Cumulative percentage of isolates inhibited at MIC (Enterobacter aerogenes; 0.5 μg/mL): 100.0%
Number of test isolates at MIC (Enterobacter aerogenes; 0.5 μg/mL): 2
MIC50 (Enterobacter aerogenes; Klebsiella aerogenes, read-out: MIC50): 0.06 µg/mL (≈ 0.149 µM)
MIC90 (Enterobacter aerogenes; Klebsiella aerogenes, read-out: MIC90): 0.12 µg/mL (≈ 0.299 µM)
Mode (Proteus mirabilis): 0.25 µg/mL
Cumulative percentage of isolates inhibited at MIC (Proteus mirabilis; 0.5 μg/mL): 60.0%
Number of test isolates at MIC (Proteus mirabilis; 0.5 μg/mL): 9
Cumulative percentage of isolates inhibited at MIC (Proteus mirabilis; 1 μg/mL): 64.0%
Number of test isolates at MIC (Proteus mirabilis; 1 μg/mL): 2
Cumulative percentage of isolates inhibited at MIC (Proteus mirabilis; 4 μg/mL): 66.0%
Number of test isolates at MIC (Proteus mirabilis; 4 μg/mL): 1
Cumulative percentage of isolates inhibited at MIC (Proteus mirabilis; 8 μg/mL): 68.0%
Number of test isolates at MIC (Proteus mirabilis; 8 μg/mL): 1
Cumulative percentage of isolates inhibited at MIC (Proteus mirabilis; 16 μg/mL): 72.0%
Number of test isolates at MIC (Proteus mirabilis; 16 μg/mL): 2
Cumulative percentage of isolates inhibited at MIC (Proteus mirabilis; 32 μg/mL): 82.0%
Number of test isolates at MIC (Proteus mirabilis; 32 μg/mL): 5
Cumulative percentage of isolates inhibited at MIC (Proteus mirabilis; 64 μg/mL): 90.0%
Number of test isolates at MIC (Proteus mirabilis; 64 μg/mL): 4
Cumulative percentage of isolates inhibited at MIC (Proteus mirabilis; 128 μg/mL): 98.0%
Number of test isolates at MIC (Proteus mirabilis; 128 μg/mL): 4
Cumulative percentage of isolates inhibited at MIC (Proteus mirabilis; >128 μg/mL): 100.0%
Number of test isolates at MIC (Proteus mirabilis; >128 μg/mL): 1
MIC50 (Proteus mirabilis; Proteus mirabilis, read-out: MIC50): 0.5 µg/mL (≈ 1.25 µM)
MIC90 (Proteus mirabilis; Proteus mirabilis, read-out: MIC90): 64 µg/mL (≈ 159 µM)
MIC range (Pseudomonas aeruginosa): 0.12-32 ^ μg/mL
Mode (Pseudomonas aeruginosa): 1 µg/mL
Cumulative percentage of isolates inhibited at MIC (Pseudomonas aeruginosa; 0.5 μg/mL): 20.0%
Number of test isolates at MIC (Pseudomonas aeruginosa; 0.5 μg/mL): 8
Cumulative percentage of isolates inhibited at MIC (Pseudomonas aeruginosa; 1 μg/mL): 58.0%
Number of test isolates at MIC (Pseudomonas aeruginosa; 1 μg/mL): 19
Cumulative percentage of isolates inhibited at MIC (Pseudomonas aeruginosa; 2 μg/mL): 60.0%
Number of test isolates at MIC (Pseudomonas aeruginosa; 2 μg/mL): 1
Cumulative percentage of isolates inhibited at MIC (Pseudomonas aeruginosa; 4 μg/mL): 66.0%
Number of test isolates at MIC (Pseudomonas aeruginosa; 4 μg/mL): 3
Cumulative percentage of isolates inhibited at MIC (Pseudomonas aeruginosa; 8 μg/mL): 78.0%
Number of test isolates at MIC (Pseudomonas aeruginosa; 8 μg/mL): 6
Cumulative percentage of isolates inhibited at MIC (Pseudomonas aeruginosa; 16 μg/mL): 90.0%
Number of test isolates at MIC (Pseudomonas aeruginosa; 16 μg/mL): 6
Cumulative percentage of isolates inhibited at MIC (Pseudomonas aeruginosa; 32 μg/mL): 100.0%
Number of test isolates at MIC (Pseudomonas aeruginosa; 32 μg/mL): 5
MIC50 (Pseudomonas aeruginosa; Pseudomonas aeruginosa, read-out: MIC50): 1 µg/mL (≈ 2.49 µM)
MIC90 (Pseudomonas aeruginosa; Pseudomonas aeruginosa, read-out: MIC90): 16 µg/mL (≈ 39.9 µM)
Number of test isolates at MIC (Pseudomonas aeruginosa; […]): 1
